“And” between values parts separate entries of the source, which are not always exact repeats. Equal values may be shown once.
Columns and labels:
EMT6 tumor cells = experiment: EMT-6 tumor model (tumor volume and lung metastasis); assay type: in vivo, female Balb/c mice
Method: Test animals were female Balb/c mice aged 5-8 weeks at inoculation.
The EMT6 tumor cells were maintained in vitro with DMEM medium supplemented with 10% fetal bovine serum at 37° C. in an atmosphere of 5% CO2 in air. The cells in exponential growth phase were harvested and quantitated by cell counter before tumor inoculation.
Each mouse was inoculated subcutaneously in the right flank region with EMT6 tumor cells (5×10^5) in 0.1 ml of PBS for tumor development.
Staggered inoculation was performed. G1, 2, 3, 6, 7 were inoculated one day before G4, 5, 8, 9, 10.
The randomization started when the mean tumor size reached approximately 80 (60-110) mm^3. 100 mice were enrolled in the study. All animals were randomly allocated to 10 study groups. Randomization was performed based on “Matched distribution” method (StudyDirector™ software, version 3.1.399.19).
Staggered randomization was performed. G1, 2, 3, 6, 7 were randomized one day before G4, 5, 8, 9, 10.
The date of tumor randomization was denoted as day 0.
After tumor cells inoculation, the animals were checked daily for morbidity and mortality. During routine monitoring, the animals were checked for any effects of tumor growth and treatments on behavior such as mobility, food and water consumption, body weight gain/loss (body weights were measured twice per week after randomization), eye/hair matting and any other abnormalities. Mortality and observed clinical signs were recorded for individual animals in detail.
Tumor volumes were measured twice per week in two dimensions using a caliper, and the volume was expressed in mm^3 using the formula: “V=(L×W×W)/2, where V is tumor volume, L is tumor length (the longest tumor dimension) and W is tumor width (the longest tumor dimension perpendicular to L). (Tumor weight was measured at the end of study). Dosing as well as tumor and body weight measurements were conducted in a Laminar Flow Cabinet.
The study was terminated at 4 weeks post randomization. Individual animals were euthanized when TV>3000 mm^3.
For comparison between two groups, a Student's t-test was performed. For comparison among three or more groups, an one-way ANOVA was performed followed by multiple comparison procedures. All data were analyzed using SPSS 18.0 and/or GraphPad Prism 5.0. P<0.05 is considered statistically significant.
Animals were treated with vehicle, cpd 76, radiotherapy, or anti-PD-L1, or a combination of treatments. Compound 76 was dosed 50 mg/kg and formulated 5 mg/ml in PBS. Radiotherapy used the X-RAD 225Cx SmART Small Animal Radiation Therapy System (Crownbio). Ten animals were in each group and dosing was performed as in Table 4.

[1] = Animal weight in 4T1 tumor model study; assay type: in vivo, Mus musculus, BALB/c; details: throughout the study; Groups 3 and 4 until Day 21, Groups 1 and 2 until Day 25
Method: All treatment groups were compared to the vehicle control given subcutaneously once a day on Days 7, 8, 9, 14, 15 and 16 (Group 1).
At necropsies, animals were weighed, and a final in vivo tumor volume measurement was performed.

Structure (SMILES)	effect on tumor growth (EMT6 tumor cells; Compound 76 50 mg/kg QD 1-7 combined with IR and aPD-L1 (triple combo))	lung metastasis (animals with metastasis / animals) (EMT6 tumor cells; Compound 76 QD 1-7 d combined with aPD-L1 (Groups 9 and 10), study termination day 29)	effect on tumor volume / tumor growth (EMT6 tumor cells; single agent, Compound 76 50 mg/kg QD 1-7 only or 3 d on/4 d off for 4 weeks, aPD-L1 2.5 mg/kg)	lung metastasis (animals with metastasis / animals in group) (EMT6 tumor cells; single agent, study termination day 29)	mean animal weights [1]
COc1cccc2c(N3CCC(CCP(=O)(O)O)CC3)ncnc12 [Compound 76]	synergistic effect	0/20	no effect on tumor volume	7/10 and 8/10	–
COc1cccc2c1C(=O)c1c(O)c3c(c(O)c1C2=O)C[C@@](O)(C(=O)CO)C[C@@H]3O[C@H]1C[C@H](N)[C@H](O)[C@H](C)O1 [doxorubicin, Doxorubicin]	–	–	–	–	continuously decreased
